Consider nine compounds from patent publication US20040086880A1, “Method of producing nucleic acid molecules with reduced secondary structure” (priority 1999, published 2004).

For data set [1] the following is noted: 28-mer duplexes; cited from earlier work.
The target in data set [2] is T1, Bst DNA polymerase (Geobacillus stearothermophilus, UniProt P52026).
T1 sequence (P52026 1-876): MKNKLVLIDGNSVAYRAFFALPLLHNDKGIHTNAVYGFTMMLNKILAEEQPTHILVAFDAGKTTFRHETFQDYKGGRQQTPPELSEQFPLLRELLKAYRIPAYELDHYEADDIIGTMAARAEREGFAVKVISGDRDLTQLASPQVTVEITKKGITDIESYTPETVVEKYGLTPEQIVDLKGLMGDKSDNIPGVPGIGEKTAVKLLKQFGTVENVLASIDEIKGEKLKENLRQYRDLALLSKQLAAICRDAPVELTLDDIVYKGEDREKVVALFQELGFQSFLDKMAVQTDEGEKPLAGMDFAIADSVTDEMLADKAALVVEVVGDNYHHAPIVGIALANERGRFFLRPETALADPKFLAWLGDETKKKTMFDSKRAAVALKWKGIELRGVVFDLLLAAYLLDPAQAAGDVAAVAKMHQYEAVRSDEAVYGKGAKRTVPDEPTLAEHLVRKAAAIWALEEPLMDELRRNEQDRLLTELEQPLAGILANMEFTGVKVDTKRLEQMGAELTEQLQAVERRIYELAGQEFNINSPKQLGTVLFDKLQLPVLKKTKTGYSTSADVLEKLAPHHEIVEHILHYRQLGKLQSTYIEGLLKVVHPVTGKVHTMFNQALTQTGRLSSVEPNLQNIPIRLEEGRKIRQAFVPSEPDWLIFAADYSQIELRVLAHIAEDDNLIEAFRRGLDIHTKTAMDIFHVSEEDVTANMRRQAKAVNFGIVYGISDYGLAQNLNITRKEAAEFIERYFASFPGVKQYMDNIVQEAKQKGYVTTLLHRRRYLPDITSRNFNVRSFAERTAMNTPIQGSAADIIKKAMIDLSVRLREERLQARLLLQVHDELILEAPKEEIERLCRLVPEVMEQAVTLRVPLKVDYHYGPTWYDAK
Kind of data set: Incorporation specificity of 2-thio-2′-deoxycytidine triphosphate opposite template G or I. Type of data set: biochemical. Particulars: 5.0 uM dNTP, 45° C.; for primer extension rate: template I. As for the experimental part: The reactions were incubated at 45° C. At 5, 10, 20 and 40 minutes, 7.0 uL aliquots were removed and the reaction mixture was separated by electrophoresis on 20%/7M urea polyacrylamide gels. The products were visualized by phosphorimaging.

The next data set addresses T2, T7 RNA polymerase (Escherichia phage T7, UniProt P00573).
T2 construct: purchased Ambion Inc
Kind of data set: Transcription of ribo-UNA from linearized DNA template. The format is biochemical. As to conditions: substituted for ATP and UTP; 37° C., one hour. The procedure:
The ability to transcribe longer ribo-UNAs (rUNAs) using T7 RNA polymerase and the corresponding modified ribonucleotide triphosphates was tested using a linear double-stranded DNA template. A plasmid DNA containing the human retinoblastoma gene under control of a T7 RNA polymerase promoter was digested with the restriction endonucleases XbaI and AflII. The resulting linearized plasmid templates for a 138 nucleotide transcript when transcribed with T7 RNA polymerase (see FIG. 34A).
The transcription reactions (20 uL) contained 1× transcription buffer (Ambion Inc.), 0.5 mM GTP, 0.5 mM ATP (or 2-aminoadenosine-5′-triphosphate (rD)), 0.5 mM UTP (or 2-thiouridine-5′-triphosphate (rS), 1.6 uM α-^32P-CTP, 1 ug of the linearized DNA template and 10 units of T7 RNA polymerase (Ambion Inc.). The reaction mixtures were incubated at 37° C. for one hour and then separated by electrophoresis on a 6%/7M urea polyacrylamide gel.

Data set [3] concerns the target T3, SuperScript II MMLV reverse transcriptase (Moloney murine leukemia virus, UniProt P03355, D1183G/D1242N/E1221Q).
T3 construct: 200 units of SuperScript II MMLV reverse transcriptase (InVitrogen); purchased InVitrogen
Kind of data set: Synthesis of full-length cUNA from polyadenylated T7-RNA transcripts. The format is biochemical. As to conditions: additional substitution for GTP; relative to natural dNTP or D/S substituted reactions. The procedure:
The ability to synthesize full-length UNA copies (cUNAs) of polyadenylated RNA was tested using various reverse transcriptase enzymes and three T7-RNA transcripts having 3′-polyadenylated tails as templates. The three T7-RNA transcripts correspond to the genes for the penicillin binding protein from E. coli (pBp-1), the chlorophyll A/B binding protein from Arabidopsis thaliana (Cab), and nucleotides 5-335 of the Hepatitis C virus (HCV) genome (See FIG. 32 (panel A)). The expected length of the cUNAs generated from the three polyadenylated RNAs using an oligo-dT primer is 1194, 729 and 360 nucleotides respectively (see FIG. 32 (panel B)).
The reverse transcriptase reactions (15.0 uL) were performed in 0.65 mL pre-siliconized microfuge tubes containing the following components: 50 mM Tris-Cl (pH 8.3), 75 mM KCl, 3.0 mM MgCl2, 4.5 mM DTT, 500 uM dGTP (or dITP), 500 uM dATP (or 2-amino-2′-deoxyadenosine-5′-triphosphate), 500 uM TTP (or 2-thiothymidine-5′-triphosphate), 100 uM dCTP, 0.33 uCi of ^32P-α-dCTP, 20 nM each T7-RNA template, 1.0 uM T16N2 primer, 1.0 unit of RNase Out (In Vitrogen), and 200 units of SuperScript II MMLV reverse transcriptase (InVitrogen). The buffer components, RNA template and primer were annealed by heating to 75° C. for 4 minutes and quickly cooled to room temperature. […]

Data set [4] has as its target T4, Bst DNA polymerase (Geobacillus stearothermophilus, UniProt P52026).
T4 construct: purchased New England Biolabs
T4 sequence (P52026 290-876 limits assumed): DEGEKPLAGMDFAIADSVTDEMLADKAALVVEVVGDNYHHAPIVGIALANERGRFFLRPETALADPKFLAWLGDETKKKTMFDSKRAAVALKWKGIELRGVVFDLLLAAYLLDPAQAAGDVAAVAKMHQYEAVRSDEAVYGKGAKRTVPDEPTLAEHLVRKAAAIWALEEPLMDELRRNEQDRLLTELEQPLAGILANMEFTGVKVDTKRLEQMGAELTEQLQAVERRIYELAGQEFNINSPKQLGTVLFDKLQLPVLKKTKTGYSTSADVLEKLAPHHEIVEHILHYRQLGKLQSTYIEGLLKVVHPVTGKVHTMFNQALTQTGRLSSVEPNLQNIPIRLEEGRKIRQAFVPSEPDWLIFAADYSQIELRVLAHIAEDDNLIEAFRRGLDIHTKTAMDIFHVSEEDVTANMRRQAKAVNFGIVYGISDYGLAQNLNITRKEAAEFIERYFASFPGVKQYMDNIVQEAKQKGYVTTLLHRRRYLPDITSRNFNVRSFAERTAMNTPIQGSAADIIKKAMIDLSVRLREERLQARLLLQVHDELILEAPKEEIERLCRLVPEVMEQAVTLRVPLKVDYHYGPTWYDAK
Kind of data set: Single nucleotide extension of 6-mer primers at varying dNTP concentration. Particulars: for extension efficiency of 6-mer primer compared with natural dNTP: dNTP 0.5 microM to 130 microM, 45° C., 8 hours. Type of data set: biochemical. The procedure:
To further assess the incorporation efficiency of the modified nucleotides by Bst DNA polymerase, the efficiency for a single nucleotide extension reaction was determined using two 6-mer primers in the presence of varying concentrations of dATP, 2-amino-2′-deoxyadenosine-5′-triphosphate, dTTP or 2-thiothymidine-5′-triphosphate (illustrated as 2-thioTTP) (FIGS. 3A and 4A). For this study, the reaction mixtures contained: 20 mM Tris-Cl (pH 8.8 @ 25° C.), 10 mM KCl, 10 mM (NH4)2SO4, 2 mM MgSO4, 0.1% Triton-X100, 500 nanoM 6-mer primer, 20 nanoM 30-mer DNA template, 0.8 units/microL (˜70 nanoM) Bst DNA polymerase and a dNTP concentration ranging from 0.5 microM to 130 microM. The reaction mixtures were incubated at 45° C. for 8 hours and separated by electrophoresis on 20% denaturing (7M urea) polyacrylamide gels.

Each structure is given as a SMILES string.

T2 sequence (P00573 whole entry): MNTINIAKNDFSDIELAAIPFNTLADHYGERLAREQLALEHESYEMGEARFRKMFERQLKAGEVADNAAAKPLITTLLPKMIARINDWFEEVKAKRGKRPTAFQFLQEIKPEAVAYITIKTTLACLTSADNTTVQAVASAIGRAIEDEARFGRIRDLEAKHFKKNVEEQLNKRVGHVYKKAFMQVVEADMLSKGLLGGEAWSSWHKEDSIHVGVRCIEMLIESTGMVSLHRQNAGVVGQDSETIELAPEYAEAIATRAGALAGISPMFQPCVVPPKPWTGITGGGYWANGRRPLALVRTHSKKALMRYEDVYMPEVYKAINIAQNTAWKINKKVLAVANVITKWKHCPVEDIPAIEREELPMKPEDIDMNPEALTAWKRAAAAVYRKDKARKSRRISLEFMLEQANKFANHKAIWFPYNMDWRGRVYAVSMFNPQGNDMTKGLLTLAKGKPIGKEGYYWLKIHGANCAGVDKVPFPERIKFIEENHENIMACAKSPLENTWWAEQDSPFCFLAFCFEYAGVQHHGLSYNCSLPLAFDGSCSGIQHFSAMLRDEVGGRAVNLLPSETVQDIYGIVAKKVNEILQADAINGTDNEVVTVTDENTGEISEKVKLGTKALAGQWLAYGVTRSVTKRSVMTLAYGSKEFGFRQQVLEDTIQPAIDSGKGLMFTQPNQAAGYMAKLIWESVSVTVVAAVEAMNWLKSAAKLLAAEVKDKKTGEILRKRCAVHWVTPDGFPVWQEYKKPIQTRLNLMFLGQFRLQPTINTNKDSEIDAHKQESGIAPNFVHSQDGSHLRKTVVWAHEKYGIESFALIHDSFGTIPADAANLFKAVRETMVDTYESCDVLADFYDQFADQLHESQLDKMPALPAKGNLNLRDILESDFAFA

Consider `c1cc2[nH]cncc-2n1` [P, pyrrolo-pyrimidine], for which the “change of duplex Tm per modified base pair” value in data set [1] is −0.5 °C. Take `Nc1ccn([C@H]2C[C@H](O)[C@@H](COP(=O)(O)OP(=O)(O)OP(=O)(O)O)O2)c(=O)n1` [dCTP, 2′-deoxycytidine-5′-triphosphate, reference compound]: the “conversion of the 12-mer primer to the 13-mer extension product” value on Bst DNA polymerase [2] (template G) is “efficient conversion”. Also, the primer extension rate entry at Bst DNA polymerase [2] is “equivalent”. As for `Nc1nc(N)c2ncn([C@@H]3O[C@H](COP(=O)(O)OP(=O)(O)OP(=O)(O)O)[C@@H](O)[C@H]3O)c2n1` [2-aminoadenosine-5′-triphosphate], at T7 RNA polymerase, the “full-length product (138 nucleotide transcript)” value is listed as “full-length product is generated”. Regarding `O=P(O)(O)OP(=O)(O)OP(=O)(O)OC[C@H]1O[C@@H](n2cnc3c(O)ncnc32)C[C@@H]1O` [ITP, 2′-deoxyinosine-5′-triphosphate], the “reduction of yield of full-length product” value in data set [3] was “about 2 fold”. Regarding `OC[C@H]1O[C@@H](n2cnc3c(O)ncnc32)[C@H](O)[C@@H]1O` [I, inosine], the “change of duplex Tm per modified base pair” value in data set [1] was −1.9 °C. Take `O=c1ccn([C@@H]2O[C@H](COP(=O)(O)OP(=O)(O)OP(=O)(O)O)[C@@H](O)[C@H]2O)c(=S)[nH]1` [2-thiouridine-5′-triphosphate]: on T7 RNA polymerase, the “full-length product (138 nucleotide transcript)” value is on record as “full-length product is generated”. What is called EC50 is the midpoint of the concentration-response curve. A high value points to lower potency in that assay. On to `Cc1cn([C@H]2C[C@H](O)[C@@H](COP(=O)(O)OP(=O)(O)OP(=O)(O)O)O2)c(=O)[nH]c1=O` [dTTP, 2′-deoxythymidine-5′-triphosphate, reference compound], for which, at Bst DNA polymerase [4], the EC50 was about 4 µM and the “extension efficiency of 6-mer primer compared with natural dNTP” value is given as “very similar”.

On to `Nc1ccn([C@H]2C[C@H](O)[C@@H](COP(=O)(O)OP(=O)(O)OP(=O)(O)O)O2)c(=S)n1` [2-thio-2′-deoxycytidine triphosphate, 2-thio-2′-deoxycytidine-5′-triphosphate], for which the primer extension rate entry at Bst DNA polymerase [2] is reported as “equivalent”. For the compound `Nc1ncnc2c1ncn2[C@H]1C[C@H](O)[C@@H](COP(=O)(O)OP(=O)(O)OP(=O)(O)O)O1` [dATP, 2′-deoxyadenosine-5′-triphosphate, reference compound], the “extension efficiency of 6-mer primer compared with natural dNTP” value at Bst DNA polymerase [4] is on record as “approximately equal efficiencies”.
